Test [1] relates to S. aureus. Description: MIC of antibiotic by serial twofold dilutions (NCCLS guidelines). It is filed as cell-based, Staphylococcus aureus strain SH1000. As to conditions: Staphylococcus aureus; chloramphenicol alone; lowest concentration that completely inhibited growth; read-out: MIC against S. aureus. How it is done:
Experiments were also performed on two different types of bacteria—Pseudomonas aeruginosa strain PAO1 and Staphylococcus aureus strain SH1000. All strains were grown in LB media (1.0% Bacto tryptone, 0.5% Yeast extract, 1% NaCl). Broth cultures of freshly plated bacteria strains were grown in 3 ml of liquid medium at 37° C. for 15 hours in an orbital shaker (220 RPM) and diluted in fresh LB broth to a predetermined absorbance at 595 nm which yielded the desired CFU per ml.
The combined effect of the electric fields and antibiotics was also tested. Chloramphenicol was obtained as powder and dissolved in EtOH (99%, Frutarom). All the stock solutions were filter sterilized and held at −20° C. until use. Serial twofold dilutions of each antibiotic agent were prepared following NCCLS guidelines. […] The MIC of electric fields was defined as the lowest intensity that inhibits growth by 80% or more compared with control, as determined using the microplate reader.

Test [2] deals with S. aureus. Description: Checkerboard test of the combined effect of electric fields and chloramphenicol on growth of S. aureus. It is filed as cell-based, Staphylococcus aureus strain SH1000. The procedure: At the end of treatment, the cultures were stirred several times by up and down pipetting. Four aliquots of 250 μl were dispensed into a 96 MicroWells plate (Nunclon™ Δ, Nunc, Denmark) and the OD was determined spectrophotometrically with a microplate reader (Infinite 200, Tecan, Austria) at 750 nm. The optical densities (ODs) of the blanks, which consisted of uninoculated LB, were subtracted from the ODs of the inoculated plates. The percentage of growth for each well was calculated by dividing the OD of the wells by that of the control: (OD750mm of treated wells/OD750nm of the control well)×100.
Drug interactions with the electric fields were assessed according to the checkerboard method, with the following modifications: S. aureus inocula were diluted in LB medium containing the antibiotic to final concentration of 0.5 to 1.0×10^5 CFU/ml. The final concentrations of the chloramphenicol ranged from 0.125 to 16 μg/ml. Petri dishes containing the electric fields chamber were filled with 7 ml of the diluted cultures, and placed inside a pre cooled incubator. Fields were applied for 6 hours with the field direction alternating every 300 ms and the field intensities were varied by changing the incubator ambient temperature. Thus, lower ambient temperatures allowed for higher field intensities while maintaining the proper culture temperature of 37° C. Control plates containing the same electric fields chambers were placed in a pre-warmed incubator set at 37° C. At the end of the treatment, the cultures were stirred by pipetting the plate content up and down. Quadruplicates of 250 μl each were transferred to a 96 MicroWells plate (Nunc) and the OD was determined using Tecan microplate reader. Cultures were subjected to serial 10-fold dilution (up to 1/10,000) by adding 20 μl of sample to 180 μl of saline solution (0.85% NaCl), from which 80 μl aliquots were plated on LB agar plates (1.5% agar, 1.0% Bacto tryptone, 1% NaCl, 0.5% Yeast extract). CFU counts were performed after overnight incubation at 37° C.
To evaluate the effect of the combinations, the fractional inhibitory concentration (FIC) was calculated for the electric fields and for each antibiotic. The following formulas were used to calculate the FIC index: FIC of electric fields=MIC of electric fields in combination/MIC of electric fields alone, FIC of drug B=MIC of drug B in combination/MIC of drug B alone, and FIC index=FIC of electric fields+FIC of drug B. Synergy was defined as an FIC index of ≦0.5. Indifference was defined as an FIC index of >0.5 but of ≦4. Antagonism was defined as an FIC index of >4.

The subject of test [3] is P. aeruginosa strain PAO1. Description: P. aeruginosa pulmonary infection in neutropenic ICR mice, ceftazidime alone or combined with electric fields / sham heat. In kind it is in vivo, Pseudomonas aeruginosa. The conditions noted are these: for Average lungs weight, weight in mg (±STDEV): end of 48 hour treatment. The procedure: In vivo experiments were also performed on Pseudomonas aeruginosa strain PAO1 in lungs of infected mice. For this example, bacteria were grown in LB media (1.0% Bacto tryptone, 0.5% Yeast extract, 1.0% NaCl (Frutarom, Haifa, Israel). Broth cultures of freshly plated bacteria were grown in 250 ml of liquid medium at 37° C. in an orbital shaker at 220 RPM (New Brunswick Scientific, N.J., USA) up to logarithmic phase, centrifuged and resuspended in saline containing 15% glycerol. Stocks were divided into aliquots of 50 μl each containing 2.17×10^7 Colony Forming Units (CFU)/ml and kept at −70° C. until use.
Experiments were conducted on 7- to 8-week-old (body weight 26-35 g) ICR female mice obtained from Harlan laboratories (Israel). Mice were housed under standard conditions of light and temperature, and were fed standard laboratory chow and water ad libitum. Electric fields were generated by 2 pairs of parallel metal electrodes, 15 mm-long; 3 mm-high. The front of the electrodes was completely insulated from the medium by a ceramic [(lead magnesium niobate-lead titanate (PMN-PT) (EDO, New York, N.Y.)] having a very high dielectric constant (∈>5000) such that their capacitance was about 10 nF each. The back of the electrodes was insulated by a 2.5 mm thick layer of 353ND medical grade epoxy (Epoxy Technology, Billerica, Mass., USA). Each electrode contained a thermistor placed within the epoxy directly on top of the ceramic in order to allow for constant monitoring of the electrodes' temperature.
Two control groups were set in each experiment: sham heat control, and non treated control (referred to as “Control”). Control electrodes of identical size and shape to the electric fields electrodes, were placed on mice of the two control groups. The Sham heat electrodes produced equal temperature changes to those produced by the field electrodes by means of a heating resistor incorporated within them, and the sham heat electrodes were placed in the same positions as the real electrodes. Except for the differences in the electrodes, the control mice and the sham heat treated mice were held in conditions identical to those of the electric fields treated mice.
Mice were rendered neutropenic (neutrophil counts, <100/mm^3), as described in Andes and Craig (1998), by two intraperitoneal injections of cyclophosphamide; four days before infection (150 mg/kg of body weight) and an additional injection one day before infection (100 mg/kg of body weight). The pulmonary infection model of Takeda et al., (2006) was used with minor modifications: Anesthetized ICR mice were challenged intra-nasally with 20 μL of saline containing various concentrations (10^4-10^7 CFU/ml) of P. aeruginosa strain PAO1. On the day of infection, immediately before use, frozen bacterial cultures were thawed and diluted in saline to the desired concentration. Anesthetized mice were challenged intra-nasally with the bacterial suspension. Mice were sacrificed at 0, 3, 6, 9, 24, and 48 hours after infection in order to determine CFU counts in their lungs. After skin disinfection with 70% alcohol, lungs from sacrificed mice were removed aseptically, photographed, weighted and their CFU content was determined.
Application of electric fields to the mouse torso was carried out as follows: 4 days before infection, the torso of anesthetized mice was shaved with electrical clippers and depilated using cold wax. Electric fields treatment was applied through four insulated electrodes placed around the mouse torso so as to generate fields of two perpendicular directions. Mice were placed inside the IVC cages and the electrodes were connected to the connection box. Application of electric fields began 3 hours after infection and was maintained for 48 h with two brief stops daily for monitoring the physical condition of the mice. After 48 h of treatment, the mice were sacrificed and bacterial numbers in lung were determined. […]

Each structure is given as a SMILES string. “And” between values parts separate entries of the source, which are not always exact repeats. Equal values may be shown once.

What is called MIC is the smallest concentration in the dilution series that meets the test's criterion for growth inhibition. Consider `O=C(N[C@H](CO)[C@H](O)c1ccc([N+](=O)[O-])cc1)C(Cl)Cl` [chloramphenicol, Chloramphenicol], for which the MIC in the test with S. aureus [1] came to 4 µg/mL. For the same molecule, the “combined effect of electric fields and chloramphenicol” value with S. aureus [2] (S. aureus, 10 MHz fields, 6 hours) was “additive effect”. In addition, the “growth of S. aureus relative to control” value was 66% with S. aureus [2] (chloramphenicol 0.25 μg/ml, 0 V/cm, 6 hours); 39% with S. aureus [2] (chloramphenicol 0.25 μg/ml, 0.5-2.0 V/cm 10 MHz fields, 6 hours); 51% in the test with S. aureus [2] (chloramphenicol 0.25 μg/ml, 2.0-2.5 V/cm 10 MHz fields, 6 hours); 13% with S. aureus [2] (chloramphenicol 0.25 μg/ml, 3.5-4.5 V/cm 10 MHz fields, 6 hours); 45% in the test on S. aureus [2] (chloramphenicol 0.5 μg/ml, 0 V/cm, 6 hours); 16% with S. aureus [2] (chloramphenicol 0.5 μg/ml, 0.5-2.0 V/cm 10 MHz fields, 6 hours). Besides, the “growth of S. aureus relative to control” value with S. aureus [2] (chloramphenicol 0.5 μg/ml, 2.0-2.5 V/cm 10 MHz fields, 6 hours) was 20%; in the test with S. aureus [2] (chloramphenicol 0.5 μg/ml, 3.5-4.5 V/cm 10 MHz fields, 6 hours), 21%; in the test on S. aureus [2] (chloramphenicol 1 μg/ml, 0 V/cm, 6 hours), 30%; in the test on S. aureus [2] (chloramphenicol 1 μg/ml, 0.5-2.0 V/cm 10 MHz fields, 6 hours), 26%; with S. aureus [2] (chloramphenicol 1 μg/ml, 2.0-2.5 V/cm 10 MHz fields, 6 hours), 6%; with S. aureus [2] (chloramphenicol 1 μg/ml, 3.5-4.5 V/cm 10 MHz fields, 6 hours), 2%. Further, the “growth of S. aureus relative to control” value with S. aureus [2] (chloramphenicol 4 μg/ml, 0 V/cm, 6 hours) was 7%; in the test on S. aureus [2] (chloramphenicol 4 μg/ml, 0.5-2.0 V/cm 10 MHz fields, 6 hours), 13%; with S. aureus [2] (chloramphenicol 4 μg/ml, 2.0-2.5 V/cm 10 MHz fields, 6 hours), 2%; in the test with S. aureus [2] (chloramphenicol 4 μg/ml, 3.5-4.5 V/cm 10 MHz fields, 6 hours), 0%. Also, the FIC index in the test with S. aureus [2] (electric fields + chloramphenicol, based on OD measurements) came out at 0.625. Further, the “concentration sufficient to produce complete inhibition of the growth of S. aureus in combination with electric fields” value in the test with S. aureus [2] (in the presence of 4 V/cm 10 MHz electric fields applied for 6 hours, field direction alternating every 300 ms) turned out to be 1 µg/mL.
As for `CC(C)(O/N=C(\C(=O)N[C@@H]1C(=O)N2C(C(=O)[O-])=C(C[n+]3ccccc3)CS[C@H]12)c1csc(N)n1)C(=O)O` [ceftazidime, Ceftazidime], the “reduction in the lung CFU content compared to the antibiotic-only treated control” value in test [3] (48 h combined treatment of electric fields and ceftazidime) was 1.5 log. In addition, the “Log CFU (T48) ± STDEV, number of bacteria in the lungs of infected mice” value in test [3] (ceftazidime 5 mg/kg i.p. twice daily + electric fields, 48 h) worked out at 5.0 ± 1.7 Log CFU; in test [3] (ceftazidime 5 mg/kg i.p. twice daily + sham heat, 48 h), 6.0 ± 2.3 Log CFU; in test [3] (ceftazidime 5 mg/kg i.p. twice daily alone (control of the with-ceftazidime groups), 48 h), 6.5 ± 2.5 Log CFU. Moreover, the “growth reduction compared to the non treated lungs” value in test [3] (ceftazidime 10 mg/kg BW/day alone) was ~2 logs. The “log CFU/lung (T48/T0) (±STDEV), P. aeruginosa growth in mice lungs” value in test [3] (ceftazidime + electric fields, 48 h) was 0.4 log CFU/lung and 0.4 ± 1.7 log CFU/lung; in test [3] (ceftazidime + sham heat, 48 h) it was 1.3 ± 2.2 log CFU/lung; in test [3] (ceftazidime alone (control), 10 mg/kg BW/day, 48 h, 10 mg/kg/day), 1.9 log CFU/lung and 1.9 ± 2.5 log CFU/lung. In addition, the “Average lungs weight, weight in mg (±STDEV)” value amounted to 244 ± 31 mg in test [3] (ceftazidime + electric fields), 275 ± 60 mg in test [3] (ceftazidime + sham heat) and 310 ± 77 mg in test [3] (ceftazidime alone (control)). Moreover, the “lung CFU count reduction compared to the control” value in test [3] (combined treatment of sham heat and ceftazidime, 48 h) is recorded as “did not result in a significant count reduction”.
